Consider 34 compounds from US12208088B2 (Genentech, Inc., priority 2018, dated 2025).

For the assay, the target named is HPK1 (Homo sapiens (Human), UniProt Q92918). The assay can be described thus: HPK1 Lantha binding assay ("Lanth"). As to conditions: binding assays; Morrison Ki fit. In short, it runs like this: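 Ki values are from Morrison-equation fitting of 665/615 nm TR-FRET signals, taking enzyme level, tracer level and tracer Kd into account. The assay mix held HPK1 (2 nM), Eu-anti-GST antibody (2 nM) and Tracer222 (15 nM). Incubations were two 1 h steps at 23 °C, on 5-fold serial compound dilutions.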
HPK1, sequence (Q92918 1-346 limits assumed): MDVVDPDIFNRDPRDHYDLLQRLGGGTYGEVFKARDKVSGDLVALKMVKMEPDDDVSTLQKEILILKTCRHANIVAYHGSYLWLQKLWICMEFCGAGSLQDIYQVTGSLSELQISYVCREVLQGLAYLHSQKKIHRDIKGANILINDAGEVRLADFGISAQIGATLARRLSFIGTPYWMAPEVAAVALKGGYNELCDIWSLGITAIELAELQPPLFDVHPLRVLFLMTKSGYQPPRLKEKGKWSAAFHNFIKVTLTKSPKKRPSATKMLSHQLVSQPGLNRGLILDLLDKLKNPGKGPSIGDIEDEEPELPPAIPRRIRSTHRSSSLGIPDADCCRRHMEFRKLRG

In turn, `O=C1CNCCN1c1cccc(-c2cnc3c(c2)C2(CC2)CN3)c1` [Compound 42, 1-(3-(1′,2′-Dihydrospiro[cyclopropane-1,3′-pyrrolo[2,3-b]pyridin]-5′-yl)phenyl)piperazin-2-one] came in with a Ki of 100 nM.
For `OCc1cccnc1-c1cccc(-c2cnc3c(c2)C2(CC2)CN3)c1` [Compound 43, (2-(3-(1′,2′-Dihydrospiro[cyclopropane-1,3′-pyrrolo[2,3-b]pyridin]-5′-yl)phenyl)pyridin-3-yl)methanol], the inhibitory constant (Ki) was found to be 81.5 nM.
In the case of `CN(CCO)C(=O)c1c(N)ccc(-c2cnc3c(c2Cl)C2(CCC2)CN3)c1F` [Compound 44, 6-Amino-3-(4′-chloro-1′,2′-dihydrospiro[cyclobutane-1,3′-pyrrolo[2,3-b]pyridin]-5′-yl)-2-fluoro-N-(2-hydroxyethyl)-N-methylbenzamide] it was 4.4 nM; in that of `CN(CCO)C(=O)c1cccc(-c2cnc3c(c2Cl)C2(CC2)CN3)c1F` [Compound 45, 3-(4′-Chloro-1′,2′-dihydrospiro[cyclopropane-1,3′-pyrrolo[2,3-b]pyridin]-5′-yl)-2-fluoro-N-(2-hydroxyethyl)-N-methylbenzamide], 43.7 nM; in that of `CCN(CCO)C(=O)c1cccc(-c2cnc3c(c2Cl)C2(CC2)CN3)c1F` [Compound 46, 3-(4′-Chloro-1′,2′-dihydrospiro[cyclopropane-1,3′-pyrrolo[2,3-b]pyridin]-5′-yl)-N-ethyl-2-fluoro-N-(2-hydroxyethyl)benzamide], 38.6 nM.
For `O=C(c1cccc(-c2cnc3c(c2Cl)C2(CC2)CN3)c1F)N(CCO)CCO` [Compound 47, 3-(4′-Chloro-1′,2′-dihydrospiro[cyclopropane-1,3′-pyrrolo[2,3-b]pyridin]-5′-yl)-2-fluoro-N,N-bis(2-hydroxyethyl)benzamide] the value was 88.5 nM; for `O=C(c1cccc(-c2cnc3c(c2Cl)C2(CC2)CN3)c1F)N1CCNCC1` [Compound 48, (3-(4′-Chloro-1′,2′-dihydrospiro[cyclopropane-1,3′-pyrrolo[2,3-b]pyridin]-5′-yl)-2-fluorophenyl)(piperazin-1-yl)methanone], 151 nM.
For `O=C(c1cccc(-c2cnc3c(c2Cl)C2(CC2)CN3)c1F)N1CC(O)C1` [Compound 49] the value was 55.3 nM; for `CC(=O)NC1CN(C(=O)c2cccc(-c3cnc4c(c3Cl)C3(CC3)CN4)c2F)C1` [Compound 50, N-(1-(3-(4′-Chloro-1′,2′-dihydrospiro[cyclopropane-1,3′-pyrrolo[2,3-b]pyridin]-5′-yl)-2-fluorobenzoyl)azetidin-3-yl)acetamide], 139 nM.
`NC1CN(C(=O)c2cccc(-c3cnc4c(c3Cl)C3(CC3)CN4)c2F)C1` [Compound 51, (3-Aminoazetidin-1-yl)(3-(4′-chloro-1′,2′-dihydrospiro[cyclopropane-1,3′-pyrrolo[2,3-b]pyridin]-5′-yl)-2-fluorophenyl)methanone] had a Ki of 68.2 nM.
`COc1c(-c2ccc(N)c(C(=O)N(C)CCO)c2F)cnc2c1C1(CCC1)CN2` [Compound 52, 6-Amino-2-fluoro-N-(2-hydroxyethyl)-3-(4′-methoxy-1′,2′-dihydrospiro[cyclobutane-1,3′-pyrrolo[2,3-b]pyridin]-5′-yl)-N-methylbenzamide] yielded a Ki of 19 nM. Compared with the last compound, the Ki is about 3.6-fold lower.
For `Cc1c(-c2ccc(N)c(C(=O)N(C)C)c2F)cnc2c1C1(CCC1)CN2` [Compound 53, 6-Amino-2-fluoro-N,N-dimethyl-3-(4′-methyl-1′,2′-dihydrospiro[cyclobutane-1,3′-pyrrolo[2,3-b]pyridin]-5′-yl)benzamide] the value was 28.9 nM; for `CC(=O)Nc1cc(C#N)cc2c(-c3cnc4c(c3)C3(CC3)CN4)cn(C)c12` [Compound 54, N-(5-Cyano-3-(1′,2′-dihydrospiro[cyclopropane-1,3′-pyrrolo[2,3-b]pyridin]-5′-yl)-1-methyl-1H-indol-7-yl)acetamide], 64.4 nM.
In the case of `O=C1NCCN1c1cccc(-c2cnc3c(c2Cl)C2(CC2)CN3)c1` [Compound 55, 1-(3-(4′-Chloro-1′,2′-dihydrospiro[cyclopropane-1,3′-pyrrolo[2,3-b]pyridin]-5′-yl)phenyl)imidazolidin-2-one] it was 84.7 nM; in that of `N#Cc1cc2c(-c3cnc4c(c3)C3(CC3)CN4)c[nH]c2cn1` [Compound 56, 3-(1′,2′-Dihydrospiro[cyclopropane-1,3′-pyrrolo[2,3-b]pyridin]-5′-yl)-1H-pyrrolo[2,3-c]pyridine-5-carbonitrile], 35.3 nM; in that of `Cn1cccc(-c2cccc(-c3cnc4c(c3Cl)C3(CC3)CN4)c2)c1=O` [Compound 57, 3-(3-(4′-Chloro-1′,2′-dihydrospiro[cyclopropane-1,3′-pyrrolo[2,3-b]pyridin]-5′-yl)phenyl)-1-methylpyridin-2(1H)-one], 9.06 nM.
Consider `O=C1NCCCC1c1cccc(-c2cnc3c(c2Cl)C2(CC2)CN3)c1` (stereo not shown) [Compound 58, 3-(3-(4′-Chloro-1′,2′-dihydrospiro[cyclopropane-1,3′-pyrrolo[2,3-b]pyridin]-5′-yl)phenyl)piperidin-2-one], for which the inhibitory constant (Ki) was 43.7 nM.
In the case of `O=C1NCCCN1c1cccc(-c2cnc3c(c2Cl)C2(CC2)CN3)c1` [Compound 59, 1-(3-(4′-Chloro-1′,2′-dihydrospiro[cyclopropane-1,3′-pyrrolo[2,3-b]pyridin]-5′-yl)phenyl)tetrahydropyrimidin-2(1H)-one] it was 14.2 nM.
As to `O=C1CCCCN1c1cccc(-c2cnc3c(c2Cl)C2(CC2)CN3)c1` [Compound 60, 1-(3-(4′-Chloro-1′,2′-dihydrospiro[cyclopropane-1,3′-pyrrolo[2,3-b]pyridin]-5′-yl)phenyl)piperidin-2-one], the Ki is 16 nM.
In the case of `Nc1cc(-c2cnc3c(c2Cl)C2(CCC(O)C2)CN3)cc(-c2ncccc2CO)c1` (stereo not shown) [Compound 61, 5′-(3-Amino-5-(3-(hydroxymethyl)pyridin-2-yl)phenyl)-4′-chloro-1′,2′-dihydrospiro[cyclopentane-1,3′-pyrrolo[2,3-b]pyridin]-3-ol] it was 12.8 nM.
For `NS(=O)(=O)c1cccc(-c2cnc3c(c2)C2(CC2)CN3)c1` [Compound 62, 3-(1′,2′-Dihydrospiro[cyclopropane-1,3′-pyrrolo[2,3-b]pyridin]-5′-yl)benzenesulfonamide] the value was 66.4 nM; for `CS(=O)(=O)c1cccc(-c2cnc3c(c2)C2(CC2)CN3)c1` [Compound 63, 5′-(3-(Methylsulfonyl)phenyl)-1′,2′-dihydrospiro[cyclopropane-1,3′-pyrrolo[2,3-b]pyridine]], 84.9 nM.
Compound `CC(=O)Nc1ccc(-c2cnc3c(c2)C2(CC2)CN3)cc1C(F)(F)F` [Compound 64, N-(4-(1′,2′-Dihydrospiro[cyclopropane-1,3′-pyrrolo[2,3-b]pyridin]-5′-yl)-2-(trifluoromethyl)phenyl)acetamide] came in with a Ki of 89.1 nM.
For `NS(=O)(=O)c1ccc(-c2cnc3c(c2)C2(CC2)CN3)cc1` [Compound 65, 4-(1′,2′-Dihydrospiro[cyclopropane-1,3′-pyrrolo[2,3-b]pyridin]-5′-yl)benzenesulfonamide] the value was 135 nM; for `CN(C)C(=O)c1c(N)ccc(-c2cnc3c(c2)C2(CCC2)CN3)c1F` [Compound 66, 6-Amino-3-(1′,2′-dihydrospiro[cyclobutane-1,3′-pyrrolo[2,3-b]pyridin]-5′-yl)-2-fluoro-N,N-dimethylbenzamide], 53.1 nM.
Compound `O=C1NCCCN1c1cccc(-c2cnc3c(c2)C2(CC2)CN3)c1` [Compound 67, 1-(3-(1′,2′-Dihydrospiro[cyclopropane-1,3′-pyrrolo[2,3-b]pyridin]-5′-yl)phenyl)tetrahydropyrimidin-2(1H)-one] registered a Ki of 27.5 nM.
On to `Cn1cccc(-c2cccc(-c3cnc4c(c3Cl)[C@]3(CC[C@H](O)C3)CN4)c2)c1=O` [Compound 68c, 3-(3-((1R,3S)-4′-chloro-3-hydroxy-1′,2′-dihydrospiro[cyclopentane-1,3′-pyrrolo[2,3-b]pyridin]-5′-yl)phenyl)-1-methylpyridin-2(1H)-one], for which the Ki is 5.4 nM. Against the preceding compound, the Ki is about 5.1-fold lower.
In the case of `C[C@@H]1CNC(=O)N1c1cccc(-c2cnc3c(c2Cl)C2(CC2)CN3)c1` [Compound 69a, (R)-1-(3-(4′-Chloro-1′,2′-dihydrospiro[cyclopropane-1,3′-pyrrolo[2,3-b]pyridin]-5′-yl)phenyl)-5-methylimidazolidin-2-one] it was 35.6 nM; in that of `C[C@H]1CNC(=O)N1c1cccc(-c2cnc3c(c2Cl)C2(CC2)CN3)c1` [Compound 69b, (S)-1-(3-(4′-Chloro-1′,2′-dihydrospiro[cyclopropane-1,3′-pyrrolo[2,3-b]pyridin]-5′-yl)phenyl)-5-methylimidazolidin-2-one], 16 nM.
In the case of `O=C1NCCCN1c1cccc(-c2cnc3c(c2)C2(CC2)CN3)n1` [Compound 70, 1-(6-(1′,2′-Dihydrospiro[cyclopropane-1,3′-pyrrolo[2,3-b]pyridin]-5′-yl)pyridin-2-yl)tetrahydropyrimidin-2(1H)-one] it was 102 nM.
`O=C1NCCN1c1cccc(-c2cnc3c(c2)C2(CC2)CN3)n1` [Compound 71, 1-(6-(1′,2′-Dihydrospiro[cyclopropane-1,3′-pyrrolo[2,3-b]pyridin]-5′-yl)pyridin-2-yl)imidazolidin-2-one] displayed a Ki of 115 nM.
`c1cc(-c2cnc3c(c2)C2(CC2)CN3)cc(-c2nnn3c2CNCC3)c1` [Compound 72, 5′-(3-(4,5,6,7-Tetrahydro-[1,2,3]triazolo[1,5-a]pyrazin-3-yl)phenyl)-1′,2′-dihydrospiro[cyclopropane-1,3′-pyrrolo[2,3-b]pyridine]] returned a Ki of 279 nM.
In turn, `O=C1NCCC1c1cccc(-c2cnc3c(c2Cl)C2(CC2)CN3)c1` (stereo not shown) [Compound 73] had a Ki of 26.1 nM. This Ki is about 11-fold lower than that of the compound before.
Compound `N#Cc1cc2c(-c3cnc4c(c3)C3(CC3)CN4)c[nH]c2cc1F` [Compound 74] showed an inhibition constant Ki of 31 nM.

As a reminder, the Ki is a dissociation constant, usually derived from enzyme kinetics or from competition with a known ligand. A lower Ki goes with tighter binding.
